Columns and labels:
[1] = system: SaOS2 cells; experiment: Collagen type I mRNA expression by northern blot in SaOS2 cells; format: cell-based, human
Protocol: After 24 hourg, total RNA was extracted and probed with a collagen type I specific probe. The autoradiographs were then scanned and the densitometry quantified on a Sun Sparc station using Bioimage software. (n=4, *=p<0.001). […] The densitometry of four different experiments was summed and is expressed as a bar graph; *=p<0.001 vs control, as a function of time, in FIG. 2A.
After 24 hours, total RNA was extracted from cells using Trizol. RNA (20 μg) was electrophoresed on a 1.2% agarose-formaldehyde gel and transferred to a nylon filter. The blots were hybridized overnight at 65° C. with a ^32P-labeled probe (10^6 cpm/ml), labeled by the random-priming method and washed at a maximum stringency. Blots were exposed to Kodak XAR 5 film and analyzed by densitometry, quantified on a Sun Sparc station using Bioimage software. (n=4, *=p<0.001). The collagen densitometry was normalized to GAPDH, a housekeeping gene, found not to change in response to GIP.
Total RNA was extracted from cells using Trizol (Gaithersburg, Md.). RNA was stored at −70° C. until use. RNA (20 μg) was electrophoresed on a 1.2% agarose-formaldehyde gel and transferred to a nylon filter. The blots were hybridized overnight at 65° C. with a ^32P-labeled probe (10^6 cpm/ml), labeled by the random-priming method and washed at maximum stringency. Hybridization was carried out in a solution of 7% SDS, 1% BSA, 1 mM EDTA, 250 mM Na2HPO4. The hybridized filters were washed with four 5 min washes of 2×SSC, 0.1% SDS at room temperature and twice in 0.1×SSC, 0.1% SDS for 30 min at 65° C. The blots were then exposed to Kodak XAR 5 film. The probes used were GAPDH (ATCC clone 57090), collagen 1 (i.m.a.g.e. clone# 308919) and a human GIPR fragment derived by PCR corresponding to transmembrane domains 2 to 7.

[2] = system: ovariectomized (OVX) rat; experiment: Bone mineral density by DXA in ovariectomized and non-OVX rats; format: in vivo, Sprague-Dawley rats; details: six weeks
From the text: 1. Control. Five non-OVX rats received daily injections at the same time everyday (09:00) of saline vehicle for six weeks into the tail vein.
3. OVX. Six OVX rats received saline vehicle injected daily for six weeks.

[3] = system: MG63 cells; experiment: Alkaline phosphatase activity in MG63 cells; format: cell-based, human
Protocol: Shown are the Means±SEM of triplicates of four different experiments. *=p<0.05; +=p<0.001.
Alkaline phosphatase (ALP) activity was measured using a commercially available assay kit (ALP […] Colorimetric test; Sigma Diagnostic, St. Louis, Mo.). This kit measures the conversion of p-nitrophenyl phosphate top-nitrophenol and inorganic phosphate. The change in absorbance at 405 nm is directly proportional to ALP activity. MG 63 cells were grown in 6 well plates incubated with the indicated agonist for the indicated times (medium was changed daily with readdition of fresh agonist) and samples collected. The kit reagents were added to the sample cuvette in the spectrophotometer at 30° C. and absorbances at 405 nm obtained at 1, 2 and 3 minutes. ALP activity (U/L) was determined using the change in absorbance with time and a millimolar absorptivity of p-nitrophenol at 405 nm of 18.45.

[4] = system: SaOS2 cells; experiment: Intracellular calcium measurement with fura-2 in SaOS2 cells; format: cell-based, human; details: fura-2, dose-dependent response
Protocol: (§1) Peak increases in intracellular calcium from four different experiments were calculated. Data is expressed as mean±SEM; *=p<0.001; **=p<0.001. […] Cellular cAMP was measured with a commercially available radioimmunoassay (Biomedical Technologies, Stoughton, Mass.). Data is expressed as mean+SEM; **=p<0.001.
Intracellular calcium measurements were made as described by Gasalla-Herraiz, et al., Biochem Biophys Res Commun 214:373-88 (1995). Briefly, SaOS2 cells were grown in 75 cm^2 flasks and removed by incubating in PBS/EGTA. Cells were loaded with the calcium sensitive dye fara-2AM in KRB, for 45 min at room temperature. The cells were then centrifuged and resuspended in KRB. After approximately 30 minutes at room temperature, to allow esterase cleavage of fura-2AM to fura-2, the cells were again centrifuged and placed in a cuvette in a dual-wavelength spectrophotometer (Photon Technologies International, South Brunswick, N.J.). Fluorescence was then measured using excitation wavelengths of 340 and 380 nm and an emission wavelength of 510 nm. Autoflourescence was measured in unloaded cells and this value subtracted from all the measurements.

[5] = molecular target: receptors for GIP; details: pancreatic β cells; depending on the cell system and the source of GIP (human versus porcine); read-out: binding affinity; cited from earlier work
[6] = system: fetal radius and ulna bone explants; experiment: Fetal long bone resorption assay (45Ca release); format: cell-based, rat; details: 10 nM PTH, GIP 10 nM
Protocol: Pregnant Sprague-Dawley rats (Charles River Laboratories, Kingston, N.Y.) were injected with 200 μCi^45Ca on day 18 of gestation and killed one day later to remove the labeled fetal radius and ulna. […] Medium was changed every 3 days and ^45Ca was measured after every culture period. Resorption is expressed as the ratio of ^45Ca released from treated versus control bones.

[7] = system: SaOS2 cells; experiment: Cellular cAMP content by radioimmunoassay in SaOS2 cells; format: cell-based, human; details: GIP 1 μM
Protocol: as §1
cAMP measurements were done as described by Isales, et al., Endocrinology 129:489-95 (1991). Briefly, SaOS2 cells were grown to confluence in 60 mm^2 dishes and placed in KRB for 24 hours before use. In order to facilitate the measurement of cAMP production, 1 mM isomethylbutylxanthine (IBMX) was added prior to agonist addition for 10 minutes, followed by incubation with agonist for 10 minutes. Incubations were stopped by addition of 5% TCA, left on ice for 15 minutes and the cell extract collected. The extracts were neutralized by addition of a 1:1 solution ice cold Freon/Tri-N-octylamine (4:1,v/v). Each sample was vortexed for at least 30 sec to ensure adequate mixing. The mixture was then centrifaged at 2,500 rpm for 20 minutes ([…]). The top aqueous phase containing the cAMP was collected. The pH of the upper phase was checked to ensure adequate neutralization. The samples were stored at −70° C. until analysis. cAMP was measured using a commercially available radioimmunoassay (Biomedical Technologies, Stoughton, Mass.). […]

With `CC[C@H](C)[C@H](NC(=O)[C@H](CO)NC(=O)[C@H](Cc1ccc(O)cc1)NC(=O)[C@H](CC(=O)O)NC(=O)[C@H](CO)NC(=O)[C@@H](NC(=O)[C@H](Cc1ccccc1)NC(=O)[C@@H](NC(=O)CNC(=O)[C@H](CCC(=O)O)NC(=O)[C@H](C)NC(=O)[C@@H](N)Cc1ccc(O)cc1)[C@@H](C)O)[C@@H](C)CC)C(=O)N[C@@H](C)C(=O)N[C@@H](CCSC)C(=O)N[C@@H](CC(=O)O)C(=O)N[C@@H](CCCCN)C(=O)N[C@H](C(=O)N[C@@H](Cc1c[nH]cn1)C(=O)N[C@@H](CCC(N)=O)C(=O)N[C@@H](CCC(N)=O)C(=O)N[C@@H](CC(=O)O)C(=O)N[C@@H](Cc1ccccc1)C(=O)N[C@H](C(=O)N[C@@H](CC(N)=O)C(=O)N[C@@H](Cc1c[nH]c2ccccc12)C(=O)N[C@@H](CC(C)C)C(=O)N[C@@H](CC(C)C)C(=O)N[C@@H](C)C(=O)N[C@@H](CCC(N)=O)C(=O)N[C@@H](CCCCN)C(=O)NCC(=O)N[C@@H](CCCCN)C(=O)N[C@@H](CCCCN)C(=O)N[C@@H](CC(N)=O)C(=O)N[C@@H](CC(=O)O)C(=O)N[C@@H](Cc1c[nH]c2ccccc12)C(=O)N[C@@H](CCCCN)C(=O)N[C@@H](Cc1c[nH]cn1)C(=O)N[C@@H](CC(N)=O)C(=O)N[C@H](C(=O)N[C@H](C(=O)N[C@@H](CCC(N)=O)C(=O)O)[C@@H](C)O)[C@@H](C)CC)C(C)C)[C@@H](C)CC` [GIP, Glucose-dependent Insulinotropic Peptide] as the compound, how does the “time course of GIP effect on collagen mRNA” value ([1]; 1 nM GIP, 0-12 hours) read?
Its value is “after six hours of stimulation”.

What about the “effect on collagen synthesis” value ([1]; higher doses (0.10, and 100 nM)) of the same compound?
The value was “maximal effect”.

And the “effect on collagen synthesis” value ([1]; lower GIP dose 0.1 nM)?
The value was “no effect”.

What about the “bone density versus controls” value ([2]; OVX rats treated with GIP) of the same compound?
Its value is “not statistically different from controls”.

What about the “densitometry of the whole extremity” value ([2]; all experimental groups) of the same compound?
Its value is “no different among the various experimental groups”.

What about the “bone density versus untreated animals” value ([2]; non-OVX control rats, GIP 0.05 mg/kg daily) of the same compound?
The value was “lower bone density than the untreated animals, this difference was not statistically significant”.

What about the “GIP concentration significantly increasing ALP activity” value [3] of the same compound?
The value was 0.1 nM.

What about the “onset of ALP activity increase” value ([3]; 0.1 nM GIP, 1-6 days) of the same compound?
The value was “as early as two days after stimulation”.

What about the “GIP effect on ALP versus positive control” value ([3]; 0.1 nM GIP, control 1,25 vitamin D (10 ng/ml)+TGF-β (10 ng/ml)) of the same compound?
The value was “larger than that observed with 1,25 vitamin D”.

What about the “ALP activity at higher doses versus 0.1 nM” value ([3]; GIP 1-10 nM) of the same compound?
The value was “did not increase ALP activity any further”.

And the “GIP concentration at which a significant increase in [Ca2+]i occurs” value [4]?
The value was 0.1 nM.

What about the Kd [5] of the same compound?
Its Kd is 0.3 to 30 nM.

What about the PTH-induced bone resorption [6] of the same compound?
Its PTH-induced bone resorption is “inhibits PTH-induced bone resorption”.

And the “elevation in cellular cAMP content” value [7]?
Its value is 710 % above control.
